The results in this text go back to PubChem BioAssay (NCI).

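Values below derive from 48-hour exposures of cells grown in 96-well plates, with endpoints linearly interpolated between the two concentrations bracketing the appropriate inhibition level. TGI: total growth inhibition.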

Holding throughout (test): NCI-60 cell line screen, 48 h
Assay [1] relates to NCI-H226 lung.
Assay [2] concerns IGROV1 ovarian.
Assay [3] relates to MALME-3M melanoma.
The subject of assay [4] is OVCAR-8 ovarian.
In assay [5] the test system is SNB-19 CNS.
In assay [6] the test system is NCI/ADR-RES ovarian.
In assay [7] the test system is RXF 393 renal.
The subject of assay [8] is ACHN renal.
In assay [9] the test system is SR leukemia.
Assay [10] relates to OVCAR-3 ovarian.
Assay [11] has as its system HCT-15 colon.
Assay [12] concerns UO-31 renal.
For assay [13], the system named is MDA-MB-231 breast.
The test system of assay [14] is RPMI-8226 leukemia.
Assay [15] has as its system EKVX NSCLC.

For the compound `CCOC(=O)CCc1c(C(=O)OCC)[nH]c(/C=C2/NC(=O)C(C)=C2CC)c1C`, the TGI is 48.2 µM in [1]; 47.7 µM in assay [2]; 33.3 µM in assay [3]; above 100 µM in assay [4]; 37.2 µM in [5]; 36.9 µM in assay [6]. For the same compound, the TGI in [7] was 30.3 µM; in assay [8] it was 60.9 µM; in assay [9] it was 20.4 µM; in [10], 16.1 µM; in assay [11], 15.3 µM; in assay [12] it was 10.5 µM. Moreover, the TGI in [13] turned out to be 48.3 µM.

Turning to `CCC(=O)N(c1ccccc1)C(C)CN1CCC(O)(c2ccccc2)CC1` (centres undefined), the TGI in [14], in assay [1], in assay [2], in [3], in [4] and in assay [5] was above 100 µM each time. Besides, the TGI in assay [6], in assay [7], in assay [8], in assay [9], in assay [10] and in assay [11] was above 100 µM throughout. Further, the TGI in [12], in assay [13] and in assay [15] was above 100 µM each time.

For `NC(=S)N/N=C/c1cc(CN2CCOCC2)c(N)cn1`, the TGI was above 100 µM in assay [14]; 45.8 µM in assay [1]; above 100 µM in assay [2]; above 100 µM in [3]; above 100 µM in [4]; above 100 µM in [5]. Also, the TGI in assay [6] is 94.3 µM; in assay [7] it was above 100 µM; in assay [8], above 100 µM; in assay [9], above 100 µM; in assay [10] it was above 100 µM; in [11], above 100 µM. The TGI in assay [12], in assay [13] and in assay [15] was above 100 µM each time.

Consider `CN1CC=C(OP(=O)(NCc2ccccc2)N(CCCl)CCCl)CC1` (centres undefined), for which the TGI in assay [14], in [1], in assay [2], in [3], in assay [4] and in assay [5] was above 100 µM in each case. Further, the TGI in assay [6], in assay [7], in assay [8], in assay [9], in [10] and in assay [11] was above 100 µM in each case. The TGI in assay [12], in assay [13] and in assay [15] was above 100 µM throughout.

On to `CCCCCCN(C(=O)Oc1ccccc1)C(C#N)c1ccccc1` (centres undefined), for which the TGI in assay [14], in [1], in [2], in assay [3], in assay [4] and in assay [5] was above 100 µM each time. Further, the TGI in assay [6], in assay [7], in assay [8], in [9], in [10] and in assay [11] was above 100 µM throughout. For the same compound, the TGI in assay [12], in assay [13] and in [15] was above 100 µM throughout.

For `CC(=O)c1c2c(cc3c1CC1(Cc4cc5c(cc4C1)CCC5)C3)CCC2`, the TGI in assay [14], in assay [2], in assay [3], in assay [4], in assay [5] and in assay [6] was above 100 µM throughout. For the same compound, the TGI in [7], in assay [8], in [9], in assay [10], in assay [11] and in assay [12] was above 100 µM in each case. The TGI in assay [13] and in [15] was above 100 µM each time.

Regarding `CC1CCCc2c(-c3ccc(Cl)cc3)nc(N)c(C#N)c21` (centres undefined), the TGI in assay [14] was 37.9 µM; in assay [1], 66.2 µM; in assay [2] it was 66.1 µM; in assay [3], above 100 µM; in assay [4], 91.6 µM; in assay [5] it was above 100 µM. Also, the TGI is 71.3 µM in assay [6]; 93.2 µM in assay [7]; above 100 µM in assay [8]; 40.5 µM in [9]; above 100 µM in assay [10]; above 100 µM in assay [11]. Moreover, the TGI in assay [12] is 61.7 µM; in assay [13], above 100 µM; in assay [15], 65.8 µM.

As to `O=c1nc2n(CCO)c(-c3ccccc3)c(-c3ccccc3)nc-2c(=O)[nH]1`, the TGI in assay [14], in [1], in [2], in assay [3], in assay [4] and in assay [5] was above 100 µM in each case. The TGI in assay [6], in assay [7], in [8], in [9], in assay [10] and in assay [11] was above 100 µM throughout. The TGI in assay [12], in assay [13] and in assay [15] was above 100 µM throughout.

As for `CCCCCCC(N)(CCCCCC)C(=O)Nn1c(C)ccc1C`, the TGI in assay [14], in assay [1], in assay [2], in [3], in assay [4] and in assay [5] was above 100 µM throughout. The TGI in assay [6], in assay [7], in assay [8], in assay [9], in [10] and in assay [11] was above 100 µM throughout. The TGI was above 100 µM in assay [12], above 100 µM in assay [13] and 58.4 µM in assay [15].

With `CCOP(=O)(CS(C)=O)O[C@@H]1C[C@H](C)CC[C@H]1C(C)C` (some centres undefined), the TGI in assay [14] was found to be 5.3 µM; in [1] it was 12.2 µM; in assay [2], 10.3 µM; in assay [3], 26.8 µM; in assay [4], 17.4 µM; in assay [5], 25.7 µM. Moreover, the TGI in [6] was 26 µM; in [7] it was 7.83 µM; in [8] it was 15.8 µM; in assay [9], above 100 µM; in [10], 15.7 µM; in [11], 7.81 µM. In addition, the TGI in assay [12] is 7.15 µM; in assay [13], 12.8 µM; in assay [15], 11.2 µM.

Regarding `N#C/C(=C\c1ccc(Cl)cc1)c1nc2ccccc2c(=O)[nH]1`, the TGI in assay [14], in assay [1], in assay [2], in assay [3], in assay [4] and in assay [5] was above 100 µM each time. The TGI in assay [6], in [7], in [8], in assay [9], in assay [11] and in assay [12] was above 100 µM in each case. In addition, the TGI in [13] and in assay [15] was above 100 µM in each case.

For `COC(=O)n1c(=O)nc2c3c(ncn21)Oc1c(c(-c2ccccc2)nn1-c1ccccc1)C3c1ccc(Cl)cc1` (centres undefined), the TGI in assay [14] was 4.07 µM; in [1] it was 3.42 µM; in assay [3], 2.21 µM; in assay [5], 3.13 µM; in assay [6], 2.77 µM; in [7] it was 2.98 µM. Besides, the TGI amounted to 3.21 µM in assay [8]; 4.31 µM in assay [9]; 2.72 µM in [10]; 2.95 µM in assay [11]; 3.28 µM in [12]; 3.05 µM in assay [13].

Take `COc1c(O)cc(/C=C/c2cc(O)cc3c2[C@@]2(C(=O)O3)c3c(O)cc(O)cc3OC2c2cccc(O)c2)cc1O` (some centres undefined): the TGI was 52.8 µM in assay [14]; above 100 µM in [2]; above 100 µM in [3]; above 100 µM in assay [4]; above 100 µM in [5]; 77.8 µM in [6]. For the same compound, the TGI is above 100 µM in [7]; above 100 µM in assay [8]; 26.5 µM in [9]; above 100 µM in assay [10]; above 100 µM in assay [11]; above 100 µM in assay [12]. In assay [13], this compound had a TGI above 100 µM.

With `CCCCCCCCCC(=O)OCC1(CO)C/C(=C/CC(C(C)C)C(C)C)C(=O)O1` (centres undefined), the TGI in assay [1] is above 100 µM; in [2], above 100 µM; in assay [3], 82.3 µM; in [4], above 100 µM; in [5], above 100 µM; in assay [6], above 100 µM. In addition, the TGI in [7] is above 100 µM; in assay [8], above 100 µM; in assay [9], above 100 µM; in assay [10], above 100 µM; in assay [11], above 100 µM; in assay [12] it was 95.8 µM. The TGI in [13] and in [15] was above 100 µM each time.

`O=C(/C=C/c1ccc(O)c(O)c1)NC(CO)C(=O)O` (centres undefined): the TGI was above 100 µM in assay [14]; above 100 µM in assay [1]; above 100 µM in assay [3]; above 100 µM in assay [4]; above 100 µM in assay [5]; 64.6 µM in assay [6]. In addition, the TGI in [7], in assay [8], in [9], in assay [10], in assay [11] and in assay [12] was above 100 µM throughout. The TGI in [13] and in assay [15] was above 100 µM in each case.

As to `COc1ccc2oc(=N)c(C(N)=S)cc2c1`, the TGI in assay [14] is 82.3 µM; in assay [1], 44.3 µM; in [2], above 100 µM; in assay [3], 32.9 µM; in assay [4], 38.9 µM; in [5], above 100 µM. For the same compound, the TGI in [6] is 37.1 µM; in assay [7], 32.8 µM; in assay [8], 79.2 µM; in assay [9], above 100 µM; in assay [11] it was 36.7 µM; in assay [12], 48.6 µM. Besides, the TGI in assay [13] worked out at 54.1 µM; in [15], 95.7 µM.

With `COc1ccc(/C=C/C(=O)NCC(NC(=O)/C=C/c2ccc(OC)c(OC)c2)C(=O)O)cc1OC` (centres undefined), the TGI in [14] was above 100 µM; in [1] it was above 100 µM; in assay [3], above 100 µM; in assay [4], above 100 µM; in [5], above 100 µM; in [6], 0.0691 µM. Also, the TGI in [7], in assay [8], in [9], in assay [10], in assay [12] and in [13] was above 100 µM each time. Further, in assay [15], the TGI is above 100 µM.

Consider `N[C@@H]1C[C@H](N)c2c(Cl)sc(Cl)c21`, for which the TGI in assay [14], in assay [1], in [2], in assay [4], in [5] and in assay [6] was above 100 µM throughout. The TGI in assay [7], in assay [8], in assay [9], in assay [10], in assay [11] and in assay [12] was above 100 µM throughout. The TGI in assay [13] and in [15] was above 100 µM in each case.

Consider `O=C(Nc1ccccc1)N1CCNC1=S`, for which the TGI in [14], in assay [1], in assay [2], in assay [3], in assay [4] and in assay [6] was above 100 µM each time. Further, the TGI is 98.2 µM in assay [7]; above 100 µM in [8]; above 100 µM in assay [9]; above 100 µM in [10]; above 100 µM in [11]; above 100 µM in [12]. In addition, the TGI in assay [13] and in [15] was above 100 µM in each case.
